Literature values, collected in patent US10292957B2, “Compositions and methods for treating fibromyalgia” (Quality IP Holdings, LLC, priority 2012, dated 2019).

Assays:
hGH secretion = conditions: for Effect on hGH: other amino acids, literature
[1] = after subcutaneous injection of 0.06 IU, hGH deficient subjects
[2] = tested on: patients with fibromyalgia; conditions: 4 days treatment
[3] = tested on: fibromyalgia patients with low IGF-1 levels
HGH-deficient adults = conditions: within months of hGH treatment
[4] = tested on: women with fibromyalgia and low IGF-1 levels
[5] = tested on: patients with severe fibromyalgia and low insulin-like growth factor 1 levels

## NCCC[C@H](N)C(=O)O [ornithine]
hGH secretion
  Effect on hGH: marked increases

## CSCC[C@H](N)C(=O)O [methionine]
hGH secretion
  Effect on hGH: marked increases

## N[C@@H](Cc1c[nH]cn1)C(=O)O [histidine]
hGH secretion
  Effect on hGH: marked increases

## NCCCC[C@H](N)C(=O)O [lysine]
hGH secretion
  Effect on hGH: marked increases

## hGH: human growth hormone, injectable
[1]
  Mean levels of hGH reached: 0.4 ng/mL
[2]
  Plasma IGF-1 levels: increase
  Plasma IGF-BP3 levels: increase
[3]; no patients discontinued due to adverse events
  Tolerability of concomitant administration with standard therapy: well tolerated
[3]; subcutaneous, added to standard therapy, one year, end of study
  Reduction in the mean number of tender points (pairs) compared to the control group: 60%
HGH-deficient adults
  Lean body mass, skin thickness and muscle mass: gains
[4]; at nine months
  FIQ score and tender point score over the placebo group: significant improvement
[4]; daily subcutaneous injections
  IGF-1 levels: prompt and sustained increase
[5]; addition to the standard treatment, sustained action over time
  Pain: effective in reducing pain
[5]; low-dose add-on to standard treatment, 120 patients
  FIQ scores compared with placebo group: significantly improved

## N[C@@H](Cc1ccccc1)C(=O)O [phenylalanine]
hGH secretion
  Effect on hGH: marked increases

## N=C(N)NCCC[C@H](N)C(=O)O [arginine]
hGH secretion; 30 g, males
  Elevation of serum hGH levels: 8.6 fold
hGH secretion; intravenous infusion of 183 mg/kg body weight, females
  Increase of hGH levels: > 20 fold
